Results taken from publication PMC5481443, “High-throughput Screening of Small Molecule Inhibitors of the Streptococcus Quorum-sensing Signal Pathway” (Scientific Reports, 2017).

Columns and labels:
MuPEP1 = MuPEP1 (Streptococcus mutans, UniProt Q8DW05); assay: Kinetic analysis of MuPEP1 peptidase activity
Method: (§1) The PEP activity was assayed in a 110-μL reaction mixture containing 50 mM Tris-HCl, 150 mM ammonium sulfate, 0.02% Triton X-100, and various concentrations of the substrate. The reaction was started by adding the PEP solution to a final concentration of 0.25–2.0 μM. The reaction was performed at 25 °C, 50 μL of the reaction mixture was transferred to a white 96-well microtiter plate (Thermo Scientific 236105), and the fluorescence intensity was immediately measured by using a Promega GloMax®-Multi plus Detection System (Promega, Madison, WI) with excitation at 405 nm and emission at 495–505 nm.
(§2) Supplementary Figure S1: v/[E] versus substrate concentration plots for the PEP […]
(§3) The data were fitted with a saturation curve with the
(§4) Tris-HCl, 150 mM ammonium sulfate, and Triton X-100, pH 7.0, at 25 °C. The concentrations of Triton X-100 were 0.01% for MuPEP1 and 0.02% for S. pneumoniae PEP. The concentrations of PEP or the peptidase domain of BlpA were […]
(1 picture or pasted object on this page, not shown here)

[1] = test system: nlmA and nlmC gene expression of S. mutans; assay: Real-time quantitative RT-PCR of bacteriocin genes; format: cell-based; conditions: 25 μM compound
Method: Six microliters of the overnight culture of S. mutans in BHI medium was inoculated into 0.4 mL of CDM. After 17 h of incubation at 37 °C in 5% CO2 under anaerobic condition in an AnaeroPack system, cells were collected by centrifugation and treated with labiase (Cosmo Bio, Tokyo, Japan), and total RNA was extracted and purified by using a PureLink™ RNA Mini kit (Ambion, Austin, TX). Purified RNA was reverse transcribed to cDNA by using SuperScript® VILO™ cDNA Synthesis kit. Quantitative real-time PCR was performed by using a Power SYBR® Green PCR Master Mix (Applied Biosystems, Foster City, CA) on a StepOnePlus Real–Time PCR system (Applied Biosystems). The gene expression levels were calculated by using the ΔΔ threshold cycle (ΔΔC T) method. The 16S rRNA gene of S. mutans was used as the housekeeping reference. The oligonucleotides to amplify each gene were as follows: 5′-[…]-3′ and 5′-[…]-3′ for 16S rRNA, 5′-[…]-3′ and 5′-[…]-3′ for nlmA (SMU. 150), and 5′-[…]-3′ and 5′-[…]-3′ for nlmC (SMU. 1914C). All experiments using commercially available kits were performed according to the manufacturer’s instructions.

[2] = molecular target: peptidase domain of S. pneumoniae BlpA (Streptococcus pneumoniae, UniProt G3ECC8); assay: BlpA peptidase domain assay with tCComC-AFC
peptidase domain of S. pneumoniae BlpA, sequence (G3ECC8 entry or part of it): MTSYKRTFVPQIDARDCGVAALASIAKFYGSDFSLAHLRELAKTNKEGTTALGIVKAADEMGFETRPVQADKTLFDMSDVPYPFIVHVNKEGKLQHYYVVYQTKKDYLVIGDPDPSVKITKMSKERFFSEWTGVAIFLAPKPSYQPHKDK
Method: as §1, §2, §3, §4
(1 picture or pasted object on this page, not shown here) […]
(§5) domain of S. pneumoniae BlpA with Compound 1. […]
(§6) was digested with 0.5 μM PEP or the peptidase domain of BlpA in the presence of […]

S. mutans = assay: Bacterial growth / viable cell count; format: cell-based, S. mutans strain UA159; conditions: 25 μM compound, tube culture
Method: […] After 18 h of standing incubation at 37 °C in 5% CO2 under anaerobic condition in an AnaeroPack system (Mitsubishi Gas Chemical, Tokyo, Japan), the cultured medium was removed, and adherent bacteria were stained with 200 μL of 0.005% crystal violet for 30 min. The wells were washed twice with 300 μL of distilled water and then air dried. The dye was extracted into 200 μL of 60% ethanol, and the biofilm mass was estimated by using a microplate reader (Bio-Rad, Model 680XR) (Bio-Rad, Hercules, CA) to measure the absorbance at 595 nm. The bacterial growth was determined by measuring the turbidity (absorbance at 595 nm) of parallel wells.
For the count of viable cells shown in Fig. 2B, part of the culture was serially diluted and spread onto the BHI plate, and the plates were incubated overnight at 37 °C in 5% CO2 under anaerobic condition.

[3] = test system: S. mutans competence development; assay: Transformation assay (competence development); format: cell-based; conditions: 10 μM compound
Method: Four microliters of the overnight culture of S. mutans in BHI medium was inoculated to 0.4 mL of CDM in the absence or presence of 10 µM Compound 1. After 7.5 h incubation at 37 °C in 5% CO2 under anaerobic condition in the AnaeroPack system, 1 μg of plasmid pSET2 was added to the culture. After additional 3-h growth, the cultures were chilled on ice, and serial dilutions of the cultures were plated onto BHI agar plates (for enumeration of total CFU) and onto BHI agar plates containing 1 mg/mL spectinomycin (for enumeration of transformants). Transformation efficiency was determined after 24–48 h incubation at 37 °C in 5% CO2 under anaerobic condition.

[4] = test system: S. mutans biofilm formation; assay: Biofilm formation assay (crystal violet staining; tilted tube culture); format: cell-based, S. mutans strain UA159
Method: After 18 h of standing incubation at 37 °C in 5% CO2 under anaerobic condition in an AnaeroPack system (Mitsubishi Gas Chemical, Tokyo, Japan), the cultured medium was removed, and adherent bacteria were stained with 200 μL of 0.005% crystal violet for 30 min. […] The dye was extracted into 200 μL of 60% ethanol, and the biofilm mass was estimated by using a microplate reader (Bio-Rad, Model 680XR) (Bio-Rad, Hercules, CA) to measure the absorbance at 595 nm. […]

S. pneumoniae PEP = molecular target: T1, S. pneumoniae PEP (Streptococcus pneumoniae serotype 4, UniProt Q03727); assay: S. pneumoniae PEP peptidase assay with tCComC-AFC; format: biochemical
T1 construct: His-tag; made in house; host or cells: E. coli BL21 (DE3) pLysS
T1 sequence (Q03727 11-138): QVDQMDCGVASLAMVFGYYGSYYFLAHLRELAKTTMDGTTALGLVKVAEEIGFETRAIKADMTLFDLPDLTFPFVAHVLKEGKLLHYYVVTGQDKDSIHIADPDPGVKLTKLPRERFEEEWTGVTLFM
Method: as §1, with “nm. […]” for “nm.”
as §4, §5, §6

MuPEP1 (S. mutans PEP) = MuPEP1 (S. mutans PEP) (Streptococcus mutans, UniProt Q8DW05); assay: MuPEP1 peptidase inhibition assay with fluorogenic substrate tCComC-AFC; format: biochemical
MuPEP1 (S. mutans PEP), sequence (Q8DW05 entry or part of it): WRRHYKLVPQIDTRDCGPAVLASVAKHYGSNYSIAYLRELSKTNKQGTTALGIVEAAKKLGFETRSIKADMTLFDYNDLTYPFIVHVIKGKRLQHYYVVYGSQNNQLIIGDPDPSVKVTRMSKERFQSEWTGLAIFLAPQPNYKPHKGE
Method: This region of ComC is necessary and sufficient for the interaction with PEP[17]. […] Thus, this synthetic peptide was used as a functionally relevant substrate. Assays were performed in black flat-bottom 384-well plates (Greinar, 784900) under ambient conditions. All compounds dissolved in DMSO were predispensed on the plate (100 nL/well) with the final concentration of 20 μM, and then aliquots of 5 μL of 0.5 μM MuPEP1 (final concentration) in 50 mM Tris-HCl, 150 mM ammonium sulfate, and 0.02% Triton X-100 were dispensed to each well by using a Multidrop Combi dispenser (Thermo Fisher Scientific, Vantaa, Finland). […] These reaction mixtures contained DMSO at a 3% final concentration. Each 384-well plate contained 16 negative control wells (lacking MuPEP1) and 16 positive control wells (100 nL of DMSO replacing 100 nL of compound in DMSO). After 3-h incubation, the fluorescence intensity of the released AFC was measured by using a microplate reader, PHERAstar (BMG Labtech, Offenburg, Germany), with excitation at 380 nm and emission at 490 nm.
Fifteen microliters of 3.3 mM of phosphoric acid was added to 8 μL of the reaction mixtures from the screening. […] The fluorescence was detected by using excitation at 360 nm and emission at 470 nm.
Dose-dependent inhibitory activities of compounds against MuPEP1 were examined in quadruplicate. […]

S. oralis PEP = S. oralis PEP (Streptococcus oralis, UniProt A0A1X1IJV1); assay: S. oralis PEP peptidase assay with tCComC-AFC
S. oralis PEP, sequence (A0A1X1IJV1 entry or part of it): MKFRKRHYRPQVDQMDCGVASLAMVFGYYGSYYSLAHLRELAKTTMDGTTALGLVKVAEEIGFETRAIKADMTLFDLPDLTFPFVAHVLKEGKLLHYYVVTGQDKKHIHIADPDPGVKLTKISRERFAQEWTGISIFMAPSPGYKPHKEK
Method: as §1
Supplementary Figure S1: v/[E] versus substrate concentration plots for the PEP
as §3
Tris-HCl, 150 mM ammonium sulfate, and Triton X-100, pH 7.0, at 25 °C. The
concentrations of Triton X-100 were 0.01% for MuPEP1 and 0.02% for S.
pneumoniae PEP. […]

[5] = test system: CC(C)C[C@H](NC(=O)[C@H](CCC(=O)O)NC(=O)[C@H](CCCCN)NC(=O)[C@H](CCC(=O)O)NC(=O)[C@H](CC(N)=O)NC(=O)[C@H](CC(C)C)NC(=O)[C@@H](NC(=O)[C@@H]1CCCN1C(=O)[C@H](Cc1ccccc1)NC(=O)[C@H](CCC(N)=O)NC(=O)[C@H](C)N)C(C)C)C(=O)N[C@@H](CCCCN)C(=O)N[C@@H](CCC(=O)O)C(=O)N[C@H](C(=O)N[C@@H](CC(C)C)C(=O)NCC(=O)NCC(=O)Nc1ccc2c(C(F)(F)F)cc(=O)oc2c1)C(C)C; assay: purified protein, by the assay type
[6] = other: MuPEP1, non-competitive inhibition model fit, Fig. 2E, pH 7.0, 25.0 °C
[7] = other: saturation curve, pH 7.0, 25 °C, Fig. S1

MuPEP1, sequence (Q8DW05 entry or part of it): as the sequence (Q8DW05 entry or part of it) above

**Q.** What does the source list for `CCCNC(=O)OCC1CC2CCN1CC2C#Cc1ccccc1` (centres unmarked) [Compound 1]?
**A.** Ki (MuPEP1): 38 µM; Inhibition mechanism (MuPEP1; Vmax decreased, Km unaffected): non-competitively inhibited; Relative gene expression level of nlmA [1]: 18%; Relative gene expression level of nlmC [1]: 23%; IC50 [2]: 16 µM; Antimicrobial activity against S. mutans (S. mutans): did not show antimicrobial activity; Transformation efficiency relative to absence of compound [3]: 35%; Biofilm in standing culture in tilted round-bottom culture tubes ([4]; 25 μM compound, overnight standing culture): easily detached and dispersed after gentle swirling; EC50 ([4]; Streptococcus mutans, S. mutans, crystal violet staining, 96-well plate, 18 h, read-out: EC50 of suppression of biofilm formation): 5 µM; IC50 (S. pneumoniae PEP): 29 µM; IC50 (MuPEP1 (S. mutans PEP)): 38 µM; IC50 (S. oralis PEP): 25 µM

**Q.** MuPEP1 (Streptococcus mutans UA159) was tested. Which Km [5, 6] did it give?
**A.** The Km was 43 µM.

**Q.** And the kcat [5, 6]?
**A.** Its kcat is 0.00333 s⁻¹.

**Q.** And the Km [5, 7]?
**A.** Its Km is 46 µM.

**Q.** And the kcat [5, 7]?
**A.** The kcat was 0.00317 s⁻¹.

**Q.** Which Km [5, 7] does the source give for “S. oralis PEP (Streptococcus oralis subsp. oralis)” here?
**A.** The Km was 8.2 µM.

**Q.** What about the kcat [5, 7] of the same compound?
**A.** Its kcat is 0.00123 s⁻¹.

**Q.** With “peptidase domain of S. pneumoniae BlpA (Streptococcus pneumoniae)” as the compound, how does the Km [5, 7] read?
**A.** Its Km is 18 µM.

**Q.** And the kcat [5, 7]?
**A.** Its kcat is 0.011 s⁻¹.
